We go through four molecules from publication PMC12457209, “Jianpi‐Huogu Prescription Repairs Nontraumatic Osteonecrosis of the Femoral Head by Inhibiting NAMPT/STK11/HMGCR/ACAT1 Axis‐Mediated Lipid Production” (Journal of Cellular and Molecular Medicine, 2025).

The target of the assay is T1, NMNAT1 (Nicotinamide Nucleotide Adenylyl Transferase 1) (Homo sapiens, UniProt Q9HAN9).
T1 construct: amine-coupled to CM5 chip
Briefly: SPR, Biacore T200, immobilised protein. Format: binding. The settings on record: PBS, 5% DMSO, 0.5% P20, pH 7.4; compound 1.56 to 50 μM. Background: SPR reads the build-up and loss of mass on a sensor chip optically.

T1 sequence (Q9HAN9 whole entry): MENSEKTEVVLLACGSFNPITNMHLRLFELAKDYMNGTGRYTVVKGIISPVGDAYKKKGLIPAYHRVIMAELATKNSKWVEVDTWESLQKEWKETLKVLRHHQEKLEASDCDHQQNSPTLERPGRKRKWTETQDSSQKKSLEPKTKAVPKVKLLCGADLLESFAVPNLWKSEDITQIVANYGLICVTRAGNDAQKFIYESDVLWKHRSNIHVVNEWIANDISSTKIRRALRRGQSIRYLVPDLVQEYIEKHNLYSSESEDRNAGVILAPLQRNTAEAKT

For the molecule `COc1cc(-c2cc(=O)c3c(O)c(O)c(OC)cc3o2)ccc1O` [5,6,4′‐trihydroxy‐7,3′‐dimethoxyflavone], the “SPR, Biacore T200, immobilised protein” value was “SPR analysis confirmed direct and specific binding of these compounds to NMNAT1”. Then `COc1cc(/C=C/C(=O)O)ccc1O` [ferulic acid], with “SPR analysis confirmed direct and specific binding of these compounds to NMNAT1”; and `Nc1nc2c(ncn2[C@@H]2O[C@H](CO)[C@@H](O)[C@H]2O)c(=O)[nH]1` [guanosine], with “SPR analysis confirmed direct and specific binding of these compounds to NMNAT1”. Then `CCC/C=C1\OC(=O)C2=C1CC[C@@H](O)[C@H]2O` [senkyunolide H], with “SPR analysis confirmed direct and specific binding of these compounds to NMNAT1”.
